ChEMBL document CHEMBL3621077, “Synthesis of hybrid anticancer agents based on kinase and histone deacetylase inhibitors” (Medchemcomm, 2014)
Calls of active or inactive are those of the source. The rule behind the calls is not given here.

What was measured:
[1] = target: Mast/stem cell growth factor receptor Kit (Homo sapiens) (UniProt P10721); experiment: Inhibition of c-kit (unknown origin) at 10 uM
[2] = target: Vascular endothelial growth factor receptor 1 (Homo sapiens, UniProt P17948); experiment: Inhibition of VEGFR1 (unknown origin); conditions: read-out: IC50
[3] = target: Platelet-derived growth factor receptor alpha (Homo sapiens, UniProt P16234); experiment: Inhibition of PDGFRa (unknown origin); conditions: read-out: IC50
[4] = target: Platelet-derived growth factor receptor beta (Homo sapiens, UniProt P09619); experiment: Inhibition of PDGFRb (unknown origin); conditions: read-out: IC50
Histone deacetylase = format: cell-based, Homo sapiens; conditions: hela
Histone deacetylase 1 = Histone deacetylase 1 (Homo sapiens, UniProt Q13547); experiment: Inhibition of HDAC1 (unknown origin)
Histone deacetylase 2 = Histone deacetylase 2 (Homo sapiens, UniProt Q92769)
Histone deacetylase 3 = Histone deacetylase 3 (Homo sapiens, UniProt O15379); experiment: Inhibition of HDAC3 (unknown origin)
Histone deacetylase 4 = Histone deacetylase 4 (Homo sapiens, UniProt P56524); experiment: Inhibition of HDAC4 (unknown origin)
Histone deacetylase 5 = Histone deacetylase 5 (Homo sapiens, UniProt Q9UQL6); experiment: Inhibition of HDAC5 (unknown origin); conditions: read-out: IC50
Histone deacetylase 8 = target: T1, Histone deacetylase 8 (Homo sapiens, UniProt Q9BY41); experiment: Inhibition of HDAC8 (unknown origin); conditions: read-out: IC50
T1 sequence (Q9BY41 whole entry): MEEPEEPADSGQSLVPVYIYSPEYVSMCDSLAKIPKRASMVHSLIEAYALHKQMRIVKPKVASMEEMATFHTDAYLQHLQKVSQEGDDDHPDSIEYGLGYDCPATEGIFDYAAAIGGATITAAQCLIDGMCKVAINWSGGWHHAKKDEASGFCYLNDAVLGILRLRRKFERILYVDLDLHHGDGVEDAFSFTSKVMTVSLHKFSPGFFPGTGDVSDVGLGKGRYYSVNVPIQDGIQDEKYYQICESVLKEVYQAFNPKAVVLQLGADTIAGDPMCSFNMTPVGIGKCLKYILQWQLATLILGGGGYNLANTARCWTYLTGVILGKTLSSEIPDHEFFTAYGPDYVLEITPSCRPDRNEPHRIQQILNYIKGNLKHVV

Histone deacetylase 9 = Histone deacetylase 9 (Homo sapiens, UniProt Q9UKV0); experiment: Inhibition of HDAC9 (unknown origin)
Xenopus laevis [5] = species on record: Xenopus laevis; experiment: Inhibition of angiogenesis in Xenopus laevis embryo heart assessed as decrease in Egfl7 mRNA level at 10 to 100 uM at stage 9 incubated for 72 hrs until stage 38 measured by WISH method; format: functional, organism-based
HL-60(TB) = experiment: Cytotoxicity against human HL-60(TB) cells; format: functional
K562 = experiment: Cytotoxicity against human K562 cells; format: functional
MOLT-4 = experiment: Cytotoxicity against human MOLT4 cells; format: functional
SR = experiment: Cytotoxicity against human SR cells; format: functional
A549 = experiment: Cytotoxicity against human A549 cells; format: functional
HOP-62 = experiment: Cytotoxicity against human HOP62 cells; format: functional
NCI-H226 = experiment: Cytotoxicity against human NCI-H226 cells; format: functional
NCI-H23 = experiment: Cytotoxicity against human NCI-H23 cells; format: functional
NCI-H322M = experiment: Cytotoxicity against human NCI-H322M cells; format: functional
NCI-H460 = experiment: Cytotoxicity against human NCI-H460 cells; format: functional
COLO 205 = experiment: Cytotoxicity against human COLO205 cells; format: functional
HCT-15 = experiment: Cytotoxicity against human HCT15 cells; format: functional
HT-29 = experiment: Cytotoxicity against human HT-29 cells; format: functional
SW-620 = experiment: Cytotoxicity against human SW620 cells; format: functional
SF-295 = experiment: Cytotoxicity against human SF295 cells; format: functional
SF-539 = experiment: Cytotoxicity against human SF539 cells; format: functional
SNB-19 = experiment: Cytotoxicity against human SNB19 cells; format: functional
SNB-75 = experiment: Cytotoxicity against human SNB75 cells; format: functional
U-251 = experiment: Cytotoxicity against human U251 cells; format: functional
LOX IMVI = experiment: Cytotoxicity against human LOXIMVI cells; format: functional
Malme-3M = experiment: Cytotoxicity against human MALME-3M cells; format: functional
M14 = experiment: Cytotoxicity against human M14 cells; format: functional
MDA-MB-435 = experiment: Cytotoxicity against human MDA-MB-435 cells; format: functional
SK-MEL-2 = experiment: Cytotoxicity against human SK-MEL-2 cells; format: functional
SK-MEL-28 = experiment: Cytotoxicity against human SK-MEL-28 cells; format: functional
SK-MEL-5 = experiment: Cytotoxicity against human SK-MEL-5 cells; format: functional
UACC-62 = experiment: Cytotoxicity against human UACC62 cells; format: functional
IGROV-1 = experiment: Cytotoxicity against human IGROV1 cells; format: functional
OVCAR-3 = experiment: Cytotoxicity against human OVCAR3 cells; format: functional
OVCAR-4 = experiment: Cytotoxicity against human OVCAR4 cells; format: functional
OVCAR-5 = experiment: Cytotoxicity against human OVCAR5 cells; format: functional
OVCAR-8 = experiment: Cytotoxicity against human OVCAR8 cells; format: functional
786-0 = experiment: Cytotoxicity against human 786-0 cells; format: functional
A498 = experiment: Cytotoxicity against human A498 cells; format: functional
ACHN = experiment: Cytotoxicity against human ACHN cells; format: functional
CAKI-1 = experiment: Cytotoxicity against human Caki1 cells; format: functional
RXF 393 = experiment: Cytotoxicity against human RXF393 cells; format: functional
SN12C = experiment: Cytotoxicity against human SN12C cells; format: functional
TK-10 = experiment: Cytotoxicity against human TK10 cells; format: functional
UO-31 = experiment: Cytotoxicity against human UO31 cells; format: functional
PC-3 = experiment: Cytotoxicity against human PC3 cells; format: functional
MCF7 = experiment: Cytotoxicity against human MCF7 cells; format: functional
MDA-MB-231 = experiment: Cytotoxicity against human MDA-MB-231 cells; format: functional
T47D = experiment: Cytotoxicity against human T47D cells; format: functional
Xenopus laevis [6] = species on record: Xenopus laevis; conditions: at 10 to 100 µM

Sequence of Histone deacetylase 4 (P56524 whole entry): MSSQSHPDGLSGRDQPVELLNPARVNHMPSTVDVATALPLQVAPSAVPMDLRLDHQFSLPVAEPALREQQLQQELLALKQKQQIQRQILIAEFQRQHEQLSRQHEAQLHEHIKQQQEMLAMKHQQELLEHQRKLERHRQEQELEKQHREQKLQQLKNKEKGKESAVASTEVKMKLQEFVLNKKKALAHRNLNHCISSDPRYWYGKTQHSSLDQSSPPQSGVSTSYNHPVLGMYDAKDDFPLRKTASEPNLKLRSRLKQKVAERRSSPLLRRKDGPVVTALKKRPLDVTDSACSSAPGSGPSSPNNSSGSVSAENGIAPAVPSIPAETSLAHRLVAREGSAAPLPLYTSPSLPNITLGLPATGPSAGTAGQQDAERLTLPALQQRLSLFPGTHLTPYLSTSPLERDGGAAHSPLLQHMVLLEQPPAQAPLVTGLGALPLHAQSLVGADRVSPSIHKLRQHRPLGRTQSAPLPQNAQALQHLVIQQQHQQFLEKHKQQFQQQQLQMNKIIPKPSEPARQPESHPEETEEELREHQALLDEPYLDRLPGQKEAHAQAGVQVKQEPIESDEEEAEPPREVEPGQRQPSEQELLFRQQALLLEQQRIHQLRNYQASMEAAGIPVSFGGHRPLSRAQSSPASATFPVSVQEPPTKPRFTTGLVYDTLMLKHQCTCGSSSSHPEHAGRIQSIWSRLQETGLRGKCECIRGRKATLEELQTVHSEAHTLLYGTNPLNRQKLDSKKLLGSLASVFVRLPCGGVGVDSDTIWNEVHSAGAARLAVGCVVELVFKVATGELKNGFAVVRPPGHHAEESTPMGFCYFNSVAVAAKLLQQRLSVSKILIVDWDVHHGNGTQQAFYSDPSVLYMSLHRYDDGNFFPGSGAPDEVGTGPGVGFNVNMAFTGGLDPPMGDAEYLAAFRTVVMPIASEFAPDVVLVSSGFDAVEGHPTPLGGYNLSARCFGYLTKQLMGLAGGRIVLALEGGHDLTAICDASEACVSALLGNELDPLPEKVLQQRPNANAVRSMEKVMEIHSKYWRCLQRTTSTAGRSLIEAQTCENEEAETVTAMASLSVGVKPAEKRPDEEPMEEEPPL
Sequence of Vascular endothelial growth factor receptor 1 (P17948 whole entry): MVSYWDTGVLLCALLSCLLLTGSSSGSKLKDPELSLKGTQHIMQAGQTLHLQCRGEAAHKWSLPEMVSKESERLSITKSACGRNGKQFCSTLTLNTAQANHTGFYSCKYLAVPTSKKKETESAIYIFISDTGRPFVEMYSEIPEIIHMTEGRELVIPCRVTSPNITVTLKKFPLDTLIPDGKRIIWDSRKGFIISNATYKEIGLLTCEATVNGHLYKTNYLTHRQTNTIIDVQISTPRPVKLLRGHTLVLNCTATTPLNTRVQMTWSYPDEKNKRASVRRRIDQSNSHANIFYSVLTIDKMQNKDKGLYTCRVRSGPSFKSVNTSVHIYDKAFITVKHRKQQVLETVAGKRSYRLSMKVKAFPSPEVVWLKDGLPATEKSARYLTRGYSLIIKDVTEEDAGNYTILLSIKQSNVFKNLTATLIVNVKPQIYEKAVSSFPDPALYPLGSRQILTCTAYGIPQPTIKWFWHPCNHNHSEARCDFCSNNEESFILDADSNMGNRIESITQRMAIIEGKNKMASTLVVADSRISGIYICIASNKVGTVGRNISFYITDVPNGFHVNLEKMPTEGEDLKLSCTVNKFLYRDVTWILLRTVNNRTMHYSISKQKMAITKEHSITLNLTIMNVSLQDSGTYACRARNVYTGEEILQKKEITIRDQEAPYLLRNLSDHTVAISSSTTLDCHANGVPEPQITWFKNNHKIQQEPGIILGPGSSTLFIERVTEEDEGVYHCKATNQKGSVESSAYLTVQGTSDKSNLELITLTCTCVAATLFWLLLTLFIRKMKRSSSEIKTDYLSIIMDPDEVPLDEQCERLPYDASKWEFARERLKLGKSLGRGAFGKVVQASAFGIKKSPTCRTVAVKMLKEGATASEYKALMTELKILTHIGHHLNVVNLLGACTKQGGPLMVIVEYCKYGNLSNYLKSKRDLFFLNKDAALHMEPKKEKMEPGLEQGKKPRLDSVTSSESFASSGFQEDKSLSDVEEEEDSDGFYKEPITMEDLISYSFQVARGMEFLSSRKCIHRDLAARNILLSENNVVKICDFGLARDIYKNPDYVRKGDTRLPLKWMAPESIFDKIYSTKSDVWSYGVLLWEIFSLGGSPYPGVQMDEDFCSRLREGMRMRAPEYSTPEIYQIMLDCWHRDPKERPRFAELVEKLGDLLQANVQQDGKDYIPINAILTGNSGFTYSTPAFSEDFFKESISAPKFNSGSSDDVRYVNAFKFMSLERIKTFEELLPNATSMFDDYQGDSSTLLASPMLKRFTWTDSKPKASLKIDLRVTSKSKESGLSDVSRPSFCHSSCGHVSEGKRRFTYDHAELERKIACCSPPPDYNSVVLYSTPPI
Sequence of Histone deacetylase 9 (Q9UKV0 whole entry): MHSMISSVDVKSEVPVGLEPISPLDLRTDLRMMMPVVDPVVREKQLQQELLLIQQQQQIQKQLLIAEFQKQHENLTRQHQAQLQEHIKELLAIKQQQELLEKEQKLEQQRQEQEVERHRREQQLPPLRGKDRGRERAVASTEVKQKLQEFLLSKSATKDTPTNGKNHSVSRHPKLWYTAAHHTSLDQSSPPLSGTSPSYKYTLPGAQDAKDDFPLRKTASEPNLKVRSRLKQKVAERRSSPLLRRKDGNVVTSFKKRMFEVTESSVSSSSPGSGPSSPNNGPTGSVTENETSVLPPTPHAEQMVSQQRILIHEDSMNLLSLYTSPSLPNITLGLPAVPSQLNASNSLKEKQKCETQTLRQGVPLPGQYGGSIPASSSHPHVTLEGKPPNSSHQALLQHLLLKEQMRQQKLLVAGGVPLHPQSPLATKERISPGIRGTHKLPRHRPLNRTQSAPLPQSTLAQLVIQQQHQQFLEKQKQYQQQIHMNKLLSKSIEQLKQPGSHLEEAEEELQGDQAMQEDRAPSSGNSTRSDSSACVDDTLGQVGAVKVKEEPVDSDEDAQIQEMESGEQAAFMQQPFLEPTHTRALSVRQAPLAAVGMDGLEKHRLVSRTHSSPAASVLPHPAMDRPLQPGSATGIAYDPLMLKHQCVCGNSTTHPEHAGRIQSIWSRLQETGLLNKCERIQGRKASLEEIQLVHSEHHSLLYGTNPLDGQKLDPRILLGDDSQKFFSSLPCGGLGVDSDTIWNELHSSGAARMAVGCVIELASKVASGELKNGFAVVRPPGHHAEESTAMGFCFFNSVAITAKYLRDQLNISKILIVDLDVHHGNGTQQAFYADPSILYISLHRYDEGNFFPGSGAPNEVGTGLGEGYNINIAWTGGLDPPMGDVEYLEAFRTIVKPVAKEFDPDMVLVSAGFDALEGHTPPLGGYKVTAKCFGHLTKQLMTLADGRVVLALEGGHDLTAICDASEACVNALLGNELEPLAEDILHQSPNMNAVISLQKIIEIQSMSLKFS
Sequence of Histone deacetylase 3 (O15379 whole entry): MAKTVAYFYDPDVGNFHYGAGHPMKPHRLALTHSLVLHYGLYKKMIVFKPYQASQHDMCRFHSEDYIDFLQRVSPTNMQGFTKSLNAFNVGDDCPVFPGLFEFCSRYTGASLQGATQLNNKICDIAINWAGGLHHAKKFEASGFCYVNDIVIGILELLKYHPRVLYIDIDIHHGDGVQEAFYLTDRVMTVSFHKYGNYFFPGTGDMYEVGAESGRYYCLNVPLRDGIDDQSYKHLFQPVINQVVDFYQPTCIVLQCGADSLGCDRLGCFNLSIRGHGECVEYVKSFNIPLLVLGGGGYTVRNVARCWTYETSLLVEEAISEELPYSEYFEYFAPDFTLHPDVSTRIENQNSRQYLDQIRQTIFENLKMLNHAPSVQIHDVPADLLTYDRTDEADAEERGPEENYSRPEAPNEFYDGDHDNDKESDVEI
Sequence of Mast/stem cell growth factor receptor Kit (Homo sapiens) (P10721 whole entry): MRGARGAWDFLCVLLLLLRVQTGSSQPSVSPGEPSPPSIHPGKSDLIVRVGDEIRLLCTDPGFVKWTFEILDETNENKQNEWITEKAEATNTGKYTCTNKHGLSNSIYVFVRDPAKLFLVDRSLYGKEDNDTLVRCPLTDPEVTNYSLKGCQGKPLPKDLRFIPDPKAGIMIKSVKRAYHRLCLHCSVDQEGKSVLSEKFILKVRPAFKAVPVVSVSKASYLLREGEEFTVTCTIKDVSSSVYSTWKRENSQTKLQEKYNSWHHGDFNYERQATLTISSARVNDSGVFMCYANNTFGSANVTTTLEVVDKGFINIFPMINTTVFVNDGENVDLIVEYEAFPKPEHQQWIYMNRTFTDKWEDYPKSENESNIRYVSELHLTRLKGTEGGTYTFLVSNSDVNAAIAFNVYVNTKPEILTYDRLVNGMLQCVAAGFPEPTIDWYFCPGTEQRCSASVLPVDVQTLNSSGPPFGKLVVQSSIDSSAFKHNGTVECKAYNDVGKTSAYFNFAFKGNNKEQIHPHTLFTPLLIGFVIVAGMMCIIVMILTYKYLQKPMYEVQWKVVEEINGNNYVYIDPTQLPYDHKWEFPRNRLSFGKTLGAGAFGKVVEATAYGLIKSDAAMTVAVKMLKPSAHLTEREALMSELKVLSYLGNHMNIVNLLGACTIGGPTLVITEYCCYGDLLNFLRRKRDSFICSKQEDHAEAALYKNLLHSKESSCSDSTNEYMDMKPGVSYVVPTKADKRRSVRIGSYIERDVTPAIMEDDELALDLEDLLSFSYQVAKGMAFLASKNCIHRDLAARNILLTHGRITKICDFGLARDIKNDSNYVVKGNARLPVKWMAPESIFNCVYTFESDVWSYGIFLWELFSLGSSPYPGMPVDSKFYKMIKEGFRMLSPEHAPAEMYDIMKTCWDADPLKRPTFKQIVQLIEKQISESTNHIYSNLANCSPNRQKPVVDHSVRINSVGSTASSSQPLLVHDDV

With `O=C(CCCCCCC(=O)Nc1ccc2c(c1)/C(=C/c1ccc[nH]1)C(=O)N2)NO` the inhibition [1] was “inactive”, the IC50 [2] was 365 nM and the IC50 [3] was 1190 nM. The IC50 [4] was 185 nM, the IC50 (Histone deacetylase) was 117 nM and the IC50 (Histone deacetylase 1) was 0.00687 nM. For the same compound, the IC50 (Histone deacetylase 2) was 1.11 nM, the IC50 (Histone deacetylase 3) was 0.669 nM and the IC50 (Histone deacetylase 4) was “Not Active”. For the same compound, the IC50 (Histone deacetylase 5) was 850 nM, the IC50 (Histone deacetylase 8) was 60.2 nM and the IC50 (Histone deacetylase 9) was “Not Active”. For the same compound, the inhibition (Xenopus laevis [5]) was “Active”, the GI50 (HL-60(TB)) was 477 nM and the GI50 (K562) was 251 nM. For the same compound, the GI50 (MOLT-4) was 302 nM, the GI50 (SR) was 296 nM and the GI50 (A549) was 2900 nM. For the same compound, the GI50 (HOP-62) was 381 nM, the GI50 (NCI-H226) was 2320 nM and the GI50 (NCI-H23) was 1320 nM. It also gave a GI50 (NCI-H322M) of 1020 nM, a GI50 (NCI-H460) of 2740 nM and a GI50 (COLO 205) of 248 nM. For the same compound, the GI50 (HCT-15) was 4590 nM, the GI50 (HT-29) was 612 nM and the GI50 (SW-620) was 275 nM. It also gave a GI50 (SF-295) of 1310 nM, a GI50 (SF-539) of 605 nM and a GI50 (SNB-19) of 644 nM. The GI50 (SNB-75) was 194 nM, the GI50 (U-251) was 420 nM and the GI50 (LOX IMVI) was 565 nM. The GI50 (Malme-3M) was 86 nM, the GI50 (M14) was 489 nM and the GI50 (MDA-MB-435) was 341 nM. For the same compound, the GI50 (SK-MEL-2) was 989 nM, the GI50 (SK-MEL-28) was 406 nM and the GI50 (SK-MEL-5) was 243 nM. For the same compound, the GI50 (UACC-62) was 301 nM, the GI50 (IGROV-1) was 167 nM and the GI50 (OVCAR-3) was 3600 nM. It also gave a GI50 (OVCAR-4) of 1270 nM, a GI50 (OVCAR-5) of 1120 nM and a GI50 (OVCAR-8) of 499 nM. The GI50 (786-0) was 2400 nM, the GI50 (A498) was 365 nM and the GI50 (ACHN) was 1150 nM. For the same compound, the GI50 (CAKI-1) was 2330 nM, the GI50 (RXF 393) was 518 nM and the GI50 (SN12C) was 2190 nM. The GI50 (TK-10) was 795 nM, the GI50 (UO-31) was 775 nM and the GI50 (PC-3) was 917 nM. It also gave a GI50 (MCF7) of 440 nM, a GI50 (MDA-MB-231) of 1000 nM and a GI50 (T47D) of 45 nM. The inhibition (Xenopus laevis [6]) was “Active”.
